Patent US10508120B2, “TYK2 inhibitors and uses thereof” (Nimbus Lakshmi, Inc., priority 2017, dated 2019)
Where two headings read alike, the source gives them in different places.

What was measured:
[1] = target: human TYK2 (JH2domain-pseudokinase) (Homo sapiens (Human), UniProt P29597); assay: TYK2 JH2 Domain Binding Assay (KINOMEscan)
Method in brief: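 Displacement of a DNA-tagged TYK2 JH2 fusion (human, aa G556–D888, HEK293 extract, <0.1 nM) from ligand-coated beads over 1 h at RT; binding buffer PBS/0.05% Tween 20/10 mM DTT/0.1% BSA.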

Tyk2 kinase domain (DH1) = Tyk2 kinase domain (DH1) (Homo sapiens (Human), UniProt P29597); assay: Tyk2 Radioactive Kinase Assay; format: biochemical; settings: for inhibition at 10 µM: read-out: Tyk2 JH1% Inhibition @ 10 μM
Chain of Tyk2 kinase domain (DH1) (P29597 897-1176): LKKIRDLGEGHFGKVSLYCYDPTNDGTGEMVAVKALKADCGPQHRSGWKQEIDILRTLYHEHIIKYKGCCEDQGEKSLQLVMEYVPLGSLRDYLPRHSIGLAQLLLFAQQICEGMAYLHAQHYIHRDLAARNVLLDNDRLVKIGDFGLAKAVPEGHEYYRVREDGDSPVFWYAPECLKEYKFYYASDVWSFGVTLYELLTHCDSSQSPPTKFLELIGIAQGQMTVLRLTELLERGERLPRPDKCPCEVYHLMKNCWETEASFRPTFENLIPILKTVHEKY
Method in brief: (§1)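 Values are single-concentration percent inhibition figures. They were obtained with 10 μM compound in a radioactivity-based kinase assay run separately on each enzyme.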

JAK2 kinase domain (JH1) = JAK2 kinase domain (JH1) (Homo sapiens (Human), UniProt O60674); assay: JAK2 Radioactive Kinase Assay; format: biochemical; settings: for inhibition at 10 µM: read-out: JAK2 JH1% Inhibition @ 10 μM
Chain of JAK2 kinase domain (JH1) (O60674 849-1124): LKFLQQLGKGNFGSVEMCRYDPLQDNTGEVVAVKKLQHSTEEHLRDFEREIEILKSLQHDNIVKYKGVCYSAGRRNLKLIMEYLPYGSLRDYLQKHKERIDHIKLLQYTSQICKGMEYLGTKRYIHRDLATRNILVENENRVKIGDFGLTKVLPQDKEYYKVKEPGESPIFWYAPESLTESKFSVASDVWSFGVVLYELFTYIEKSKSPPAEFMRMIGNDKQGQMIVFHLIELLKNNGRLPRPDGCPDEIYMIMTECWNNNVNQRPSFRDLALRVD
Method in brief: as §1

[2] = target: Tyk2/JAK2 (heterodimeric complex) (Homo sapiens (Human), UniProt P29597); assay: IL-12 Induced pSTAT4 in Human PBMC; format: cell-based; settings: 1.7 ng/mL IL-12
Chain of Tyk2/JAK2 (heterodimeric complex) (P29597 whole entry, other chains not shown): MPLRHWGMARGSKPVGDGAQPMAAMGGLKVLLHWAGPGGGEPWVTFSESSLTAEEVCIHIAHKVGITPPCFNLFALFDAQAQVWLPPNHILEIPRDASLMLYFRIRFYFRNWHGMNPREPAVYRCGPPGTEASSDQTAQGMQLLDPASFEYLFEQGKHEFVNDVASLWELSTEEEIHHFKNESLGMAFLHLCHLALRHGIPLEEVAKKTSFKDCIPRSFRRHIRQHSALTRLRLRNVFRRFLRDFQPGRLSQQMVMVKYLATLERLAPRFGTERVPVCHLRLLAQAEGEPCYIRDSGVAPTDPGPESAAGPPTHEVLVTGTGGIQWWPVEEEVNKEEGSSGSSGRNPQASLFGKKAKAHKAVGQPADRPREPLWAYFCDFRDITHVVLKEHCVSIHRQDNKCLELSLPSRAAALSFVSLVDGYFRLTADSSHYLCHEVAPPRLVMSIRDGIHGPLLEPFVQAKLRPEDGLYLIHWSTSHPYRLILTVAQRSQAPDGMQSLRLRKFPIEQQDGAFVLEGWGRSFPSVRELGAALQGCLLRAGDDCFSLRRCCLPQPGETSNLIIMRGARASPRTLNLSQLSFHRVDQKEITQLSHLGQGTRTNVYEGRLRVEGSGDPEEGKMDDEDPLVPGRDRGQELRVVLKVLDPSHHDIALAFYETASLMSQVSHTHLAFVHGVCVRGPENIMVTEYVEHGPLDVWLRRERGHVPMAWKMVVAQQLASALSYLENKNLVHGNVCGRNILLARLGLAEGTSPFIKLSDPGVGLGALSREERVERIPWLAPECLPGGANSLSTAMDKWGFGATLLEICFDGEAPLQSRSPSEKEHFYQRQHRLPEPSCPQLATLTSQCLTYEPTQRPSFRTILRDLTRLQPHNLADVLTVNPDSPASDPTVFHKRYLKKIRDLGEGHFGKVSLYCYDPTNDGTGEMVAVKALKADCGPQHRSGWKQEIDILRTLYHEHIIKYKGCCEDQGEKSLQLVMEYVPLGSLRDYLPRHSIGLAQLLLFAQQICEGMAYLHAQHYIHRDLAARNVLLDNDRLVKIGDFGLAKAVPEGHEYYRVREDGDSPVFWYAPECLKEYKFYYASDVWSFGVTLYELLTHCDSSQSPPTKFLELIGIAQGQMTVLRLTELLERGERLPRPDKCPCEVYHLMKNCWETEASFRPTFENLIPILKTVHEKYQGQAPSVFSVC
Source text: The IL-12 Induced pSTAT4 assay evaluates the inhibition of IL-12 induced STAT4 phophorylation mediated by Tyk2/JAK2 (heterodimeric complex).

[3] = target: JAK2/JAK2 homdimeric complex (Homo sapiens (Human), UniProt O60674); assay: GM-CSF Induced pSTAT5 in Human PBMC; format: cell-based; settings: GM-CSF 5 ng/mL for 20 minutes, pSTAT5 by MSD, read-out: PBMC_GMCSF_pSTAT5 IC50
Chain of JAK2/JAK2 homdimeric complex (O60674 whole entry): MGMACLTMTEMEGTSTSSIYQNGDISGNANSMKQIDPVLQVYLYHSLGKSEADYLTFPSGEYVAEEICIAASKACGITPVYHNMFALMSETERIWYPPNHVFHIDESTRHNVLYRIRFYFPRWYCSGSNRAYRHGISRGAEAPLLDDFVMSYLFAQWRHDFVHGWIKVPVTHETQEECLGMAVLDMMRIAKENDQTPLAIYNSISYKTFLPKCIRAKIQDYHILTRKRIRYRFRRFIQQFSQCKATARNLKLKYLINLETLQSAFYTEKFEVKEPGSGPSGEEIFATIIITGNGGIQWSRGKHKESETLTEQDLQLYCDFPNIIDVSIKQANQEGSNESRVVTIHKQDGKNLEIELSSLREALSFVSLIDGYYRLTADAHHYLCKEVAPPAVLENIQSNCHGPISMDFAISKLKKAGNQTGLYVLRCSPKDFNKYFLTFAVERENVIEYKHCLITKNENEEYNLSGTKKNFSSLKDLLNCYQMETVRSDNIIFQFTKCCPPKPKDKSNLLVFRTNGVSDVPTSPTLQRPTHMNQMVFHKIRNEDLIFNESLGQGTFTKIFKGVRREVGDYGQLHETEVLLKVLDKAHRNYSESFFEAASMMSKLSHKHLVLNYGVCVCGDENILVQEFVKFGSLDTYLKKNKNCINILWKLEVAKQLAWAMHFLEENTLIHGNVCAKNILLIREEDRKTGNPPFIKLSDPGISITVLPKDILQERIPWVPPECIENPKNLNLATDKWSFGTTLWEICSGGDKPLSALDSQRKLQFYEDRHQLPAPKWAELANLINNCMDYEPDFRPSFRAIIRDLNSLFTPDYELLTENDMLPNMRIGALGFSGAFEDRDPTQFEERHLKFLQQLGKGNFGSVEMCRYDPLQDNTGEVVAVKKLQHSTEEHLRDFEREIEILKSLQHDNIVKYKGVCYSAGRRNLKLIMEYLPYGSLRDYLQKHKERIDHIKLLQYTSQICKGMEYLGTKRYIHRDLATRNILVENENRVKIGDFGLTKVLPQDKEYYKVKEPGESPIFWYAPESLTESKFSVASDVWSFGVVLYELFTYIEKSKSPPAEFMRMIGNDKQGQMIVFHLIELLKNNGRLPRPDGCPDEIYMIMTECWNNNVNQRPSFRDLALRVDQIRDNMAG
Chain of JAK2/JAK2 homdimeric complex (P32927 17-897 partner): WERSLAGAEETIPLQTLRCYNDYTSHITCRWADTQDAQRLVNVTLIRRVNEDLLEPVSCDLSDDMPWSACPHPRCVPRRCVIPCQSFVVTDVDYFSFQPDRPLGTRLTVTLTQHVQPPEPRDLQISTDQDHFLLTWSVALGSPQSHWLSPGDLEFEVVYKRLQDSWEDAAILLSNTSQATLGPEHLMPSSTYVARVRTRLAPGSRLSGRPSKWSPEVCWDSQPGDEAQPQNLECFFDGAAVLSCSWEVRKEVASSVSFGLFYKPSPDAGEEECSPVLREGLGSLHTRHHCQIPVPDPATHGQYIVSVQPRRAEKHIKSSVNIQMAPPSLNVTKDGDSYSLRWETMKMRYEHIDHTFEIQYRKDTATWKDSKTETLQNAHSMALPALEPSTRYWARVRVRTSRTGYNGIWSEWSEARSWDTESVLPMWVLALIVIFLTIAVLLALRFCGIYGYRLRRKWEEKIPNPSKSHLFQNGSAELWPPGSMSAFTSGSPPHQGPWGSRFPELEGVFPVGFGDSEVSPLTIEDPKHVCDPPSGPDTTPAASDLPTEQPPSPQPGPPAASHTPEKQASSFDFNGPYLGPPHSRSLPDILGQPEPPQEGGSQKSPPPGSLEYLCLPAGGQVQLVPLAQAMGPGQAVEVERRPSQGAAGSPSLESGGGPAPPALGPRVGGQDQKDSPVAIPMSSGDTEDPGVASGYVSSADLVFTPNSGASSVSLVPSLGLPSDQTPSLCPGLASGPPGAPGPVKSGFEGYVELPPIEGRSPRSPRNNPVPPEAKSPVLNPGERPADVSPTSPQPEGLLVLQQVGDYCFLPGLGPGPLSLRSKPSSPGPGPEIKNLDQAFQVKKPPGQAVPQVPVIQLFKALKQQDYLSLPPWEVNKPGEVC

Chain of human TYK2 (JH2domain-pseudokinase) (P29597 556-888): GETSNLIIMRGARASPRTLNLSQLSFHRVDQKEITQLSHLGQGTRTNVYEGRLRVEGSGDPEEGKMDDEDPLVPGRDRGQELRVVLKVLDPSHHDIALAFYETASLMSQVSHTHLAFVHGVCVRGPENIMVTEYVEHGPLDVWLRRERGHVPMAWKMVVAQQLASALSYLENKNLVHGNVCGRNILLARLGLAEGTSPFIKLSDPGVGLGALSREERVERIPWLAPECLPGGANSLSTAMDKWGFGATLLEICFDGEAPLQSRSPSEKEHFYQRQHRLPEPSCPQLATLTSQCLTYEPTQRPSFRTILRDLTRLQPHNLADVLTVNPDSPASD

SMILES	Kd [1] [µM]	inhibition at 10 µM (Tyk2 kinase domain (DH1); compound at 10 μM, ATP 10 μM) [%]	inhibition at 10 µM (JAK2 kinase domain (JH1); compound at 10 μM, ATP 10 μM) [%]	IC50 [2] [µM]	IC50 [3] [µM]	inhibition at 10 µM (Tyk2 kinase domain (DH1); 10 μM compound, 10 μM ATP) [%]	inhibition at 10 µM (JAK2 kinase domain (JH1); 10 μM compound, 10 μM ATP) [%]	Tyk2 JH1% Inhibition @ 10 μM (Tyk2 kinase domain (DH1); compound at 10 μM, ATP 10 μM)	JAK2 JH1% Inhibition @ 10 μM (JAK2 kinase domain (JH1); compound at 10 μM, ATP 10 μM)
CNc1cc(Nc2cc(C)cn(-c3cnn(C)c3)c2=O)nc2c(C(=O)NC3CC3)cnn12 [I-233]	< 0.0002	< 50	< 50	< 0.1	> 50				
CNc1cc(Nc2cccnc2OC2CC2)nc2c(C(=O)N[C@H]3C[C@H]3F)cnn12 [I-217]	< 0.0002	< 50	< 50	< 0.1	> 50				
CNc1cc(Nc2cccn(-c3cnn(C)c3)c2=O)nc2c(C(=O)NC3CC3)cnn12 [I-295]	< 0.0002	< 50	< 50	< 0.1	> 50				
CNc1cc(Nc2cc(Cl)cn(-c3cc(C)n(C)n3)c2=O)nc2c(C(=O)N[C@H]3C[C@H]3F)cnn12 [I-315]	< 0.0002	< 50	< 50	< 0.1	> 12.5				
CNc1cc(Nc2cccc3ocnc23)nc2c(C(=O)NCC(C)(C)CO)cnn12 [I-750]	< 0.0002	< 50	< 50	< 0.1	> 2.5				
CNc1cc(Nc2cc(F)cn(-c3ccccn3)c2=O)nc2c(C(=O)N[C@H]3C[C@H]3F)cnn12 [I-194]	< 0.0002	< 50	< 50	< 0.1	> 12.5				
COc1ncccc1Nc1cc(NCCCN2CCOCC2)n2ncc(C(=O)N[C@@H]3C[C@@H]3F)c2n1 (stereo in doubt) [I-377, N-((1R,2S)-2-fluorocyclopropyl)-5-((2-methoxypyridin-3-yl)amino)-7-((3-morpholinopropyl)amino)pyrazolo[1,5-a]pyrimidine-3-carboxamide]	0.0002 to 0.001	< 50	< 50	0.1 to 0.5	> 50				
CNc1cc(Nc2cccc(N3CCOC3=O)n2)nc2c(C(=O)NC3CCC3)cnn12 [I-105]	< 0.0002	< 50	50 to 70	< 0.1	> 12.5				
CNC(=O)c1nscc1Nc1cc(NC)n2ncc(C(=O)N[C@@H]3C[C@@H]3F)c2n1 [I-914]	< 0.0002			< 0.1	> 50	< 50	< 50		
CNc1cc(Nc2cccn(C3CCCOC3)c2=O)nc2c(C(=O)NC3CCC3)cnn12 (racemic) [I-324]	< 0.0002	< 50	< 50	< 0.1	> 50				
CNc1cc(Nc2cccn(-c3ccon3)c2=O)nc2c(C(=O)NC3CCC3)cnn12 [I-158]	< 0.0002	< 50	< 50	< 0.1	> 50				
CNc1cc(Nc2cccc(N3CCCC3=O)n2)nc2c(C(=O)NC3CC3)cnn12 [I-7]	< 0.0002	< 50	< 50	< 0.1	> 12.5				
CNc1cc(Nc2cccn(C3CCC4(CC3)OCCO4)c2=O)nc2c(C(=O)NC3CC3)cnn12 [I-393]	< 0.0002	< 50	< 50	< 0.1	> 12.5				
CNc1cc(Nc2cc(Cl)cn(-c3cc(C)n(C)n3)c2=O)nc2c(C(=O)NC3CC3)cnn12 [I-314]	< 0.0002	< 50	< 50	< 0.1	> 2.5				
[2H]C([2H])([2H])Oc1ncc(F)cc1Nc1cc(NC)n2ncc(C(=O)NC3CCC3)c2n1 [I-288]	< 0.0002	< 50	< 50	< 0.1	> 2.5				
CNc1cc(-c2cn(C(C)C)c3ncccc23)nc2c(C(=O)N[C@@H]3C[C@@H]3F)cnn12 (stereo in doubt) [I-225, N-((1R,2S)-2-fluorocyclopropyl)-5-(1-isopropyl-1H-pyrrolo[2,3-b]pyridin-3-yl)-7-(methylamino)pyrazolo[1,5-a]pyrimidine-3-carboxamide]	< 0.0002	< 50	< 50	< 0.1	> 50				
CNc1cc(Nc2cc(F)cnc2OC)nc2c(C(=O)NCC(C)(C)CO)cnn12 [I-283]	< 0.0002	< 50	< 50	< 0.1	> 50				
CNc1cc(Nc2cccn(C3CCN(CC(F)F)CC3)c2=O)nc2c(C(=O)NC3CCC3)cnn12 [I-192]	< 0.0002	< 50	< 50	< 0.1	> 12.5				
CNc1cc(Nc2cccn(-c3ccc(F)cn3)c2=O)nc2c(C(=O)N[C@H]3C[C@H]3F)cnn12 [I-115]	< 0.0002	< 50	< 50	< 0.1	> 12.5				
CNc1cc(Nc2cccn(C(C)C)c2=O)nc2c(C(=O)N[C@@H]3CC[C@H]3O)cnn12 [I-918]	< 0.0002			< 0.1	> 50	< 50	< 50		
CNc1cc(Nc2cccn([C@H]3CC[C@H](OC)CC3)c2=O)nc2c(C(=O)NC3CC3)cnn12 [I-343]	< 0.0002	< 50	< 50	< 0.1	> 12.5				
CNc1cc(Nc2cccc3ocnc23)nc2c(C(=O)N[C@@H]3CC[C@@H]3O)cnn12 [I-770]	< 0.0002			< 0.1	> 2.5			A (percent inhibition at 10 μM lower than 50)	A (percent inhibition at 10 μM lower than 50)
CNc1cc(Nc2cc(F)cn(-c3cnn(C)c3)c2=O)nc2c(C(=O)NC3CC3)cnn12 [I-380]	< 0.0002	< 50	< 50	< 0.1	> 12.5				
CNc1cc(Nc2cc(Cl)cn([C@H]3CCCN(C)C3)c2=O)nc2c(C(=O)NC3CC3)cnn12 [I-820]	< 0.0002			< 0.1	> 12.5	< 50	< 50		
CNc1cc(Nc2cccn(C3CCN(CCF)CC3)c2=O)nc2c(C(=O)N[C@H]3C[C@H]3F)cnn12 [I-570]	< 0.0002	< 50	< 50	< 0.1	> 50				
CNc1cc(Nc2cc(F)cn(-c3ccc(C)nn3)c2=O)nc2c(C(=O)N[C@H]3C[C@H]3F)cnn12 [I-198]	< 0.0002	< 50	< 50	< 0.1	> 2.5				
CNc1cc(Nc2cccn(C3CCOCC3)c2=O)nc2c(C(=O)N[C@H]3C[C@H]3F)cnn12 [I-330]	< 0.0002	< 50	< 50	< 0.1	> 2.5				
CNc1cc(Nc2cccnc2OC)nc2c(C(=O)NC[C@H](C)CO)cnn12 [I-483]	< 0.0002	< 50	< 50	< 0.1	> 50				
